According to US20120010131A1, “NOVEL CYCLOSPORIN ANALOGUES” (Scynexis, Inc., priority 2009, published 2012):

Legend:
cyclophilin B = cyclophilin B (Homo sapiens, UniProt P23284); test: Cyclophilin binding competitive ELISA, cyclophilin B; details: human recombinant cyclophilin
Procedure: (§1) The cyclophilin inhibition binding of compounds of the invention was determined using a competitive ELISA adapted from the methods described by Quesniaux et al. (Eur. J Immunol. 1987, Vol. 17, pages 1359-1365). Activated ester of succinyl spacers bound to D-Lys^8-cylosporine A (D-Lys^8-Cs) was coupled to bovine serum albumin (BSA) through D-lysyl residue in position 8. BSA was dissolved in 0.1 M borate buffer, pH 9.0 (4 mg in 1.4 ml). A hundredfold molar excess of D-Lys^8-Cs dissolved in dimethyl formamide (0.6 ml) was added dropwise to the BSA under vigorous stirring. […] After acetone precipitation of an aliquot of the conjugated protein, no covalently bound D-Lys^8-Cs remained in the acetone solution and the extent of cyclosporine covalent binding was calculated.
(§2) Microtiter Plates were coated with D-Lys^8-Cs-BSA conjugate ([…] in PBS for 24 hours at 4° C.). […] Cyclophilin was detected with anti-cyclophilin rabbit antiserum diluted in 1% BSA containing PBS and incubated overnight at 4° C. […] Bound rabbit antibodies were then detected by goat anti-rabbit IgG conjugated to alkaline phosphatase diluted in 1% BSA-PBS and allowed to incubate for 2 hours at 37° C. […] After incubation with 4-nitrophenyl phosphate (1 g/1 in diethanolamine buffer, pH 9.8) for 1 to 2 hours at 37° C., the enzymatic reaction was measured spectrophotometrically at 405 nm using a spectrophotometer.

[1] = test system: mitochondrial permeability transition (MPT); test: Mitochondrial permeability transition: Ca2+-induced swelling of rat liver mitochondria; format: biochemical; details: swelling induced by 150 micromolar Ca2+, compound added 5 minutes before, read-out: EC50 (inhibition of mitochondrial swelling)
Procedure: Mitochondrial permeability transition (MPT) was determined by measuring swelling of the mitochondria induced by Ca^2+. The procedure was adapted from the method described by Blattner et al, Analytical Biochem, Volume 295, page 220 (2001). Mitochondria were prepared from rat livers, which had been perfused with phosphate-buffered saline (PBS) to remove blood, using standard methods that utilized gentle homogenization in sucrose based buffer and then differential centrifugation to first remove cellular debris and then to pellet the mitochondria. Swelling was induced by 150 micromolar Ca^2+ (added from a concentrated solution of calcium chloride) and was monitored by measuring the scattering at 535-540 nm. Representative compounds were added 5 minutes before swelling was induced. EC50 were determined by comparing swelling with and without the compounds of the invention.

[2] = test system: HCV RNA replicon ET (luc ubi neo/ET); details: read-out: EC50 (effective concentration that reduced viral replication by 50%); HCV replicon ET line, LUC reporter, 72 hours
Text: Compounds were examined in the human hepatoma cell line ET (lub ubi neo/ET), a HCV RNA replicon containing a stable luciferase (LUC) reporter. The HCV RNA replicon ET contains the 5′ end of HCV (with the HCV Internal Ribosome Entry Site (IRES) and the first few amino acids of the HCV core protein) which drives the production of a firefly luciferase (LUC), ubiquitin, and neomycin phosphotransferase (NeoR) fusion protein. Ubiquitin cleavage releases the LUC and NeoR proteins. The EMCV IRES element controls the translation of the HCV […] proteins NS3-NS5. […] At the 3′ end of the replicon is the authentic 3′ NTR of HCV. The activity of the LUC reporter is directly proportional to HCV replication levels and positive-control antiviral compounds produce a reproducible antiviral response using the LUC endpoint.
The activity of the LUC reporter is directly proportional to HCV RNA levels in the human cell line.

Jurkat cells = test: Cytotoxicity in parallel Alamar Blue plates (Jurkat cells); format: cell-based
Procedure: (§3) Compounds of the invention were tested for their T Cell stimulation (IL-2) in Jurkat cells with anti-CD3 and anti-CD28 co-stimulation. […] Cyclosporine A (control) was also run at a 0.5-Log 9-point titration, starting at 500 ng/mL. All compounds to be tested were dissolved in dimethyl sulfoxide. Cytotoxicity was evaluated with parallel Alamar Blue plates. Jurkat cells were seeded at 2×10^5 cells per well in 190 μL growth media in a 96-well plate, Cells were cultured in RPMI 1640 medium, 10% fetal bovine serum, and L-Glutamine with incubation at 37° C. with 5% carbon dioxide. After 1 hour of incubation the cells were stimulated with immobilized anti-CD3 (0.4m/well), anti-CD28 soluble (2 μg/mL). After 6 hours the sample supernatants were harvested and stored at −80° C. 50 μL samples of supernatant were tested for IL-2 using a Luminex® 1-plex assay.

cyclophilin A = cyclophilin A (Homo sapiens, UniProt P62937); test: Cyclophilin binding competitive ELISA, cyclophilin A; details: human recombinant cyclophilin
Sequence of cyclophilin A (P62937 whole entry): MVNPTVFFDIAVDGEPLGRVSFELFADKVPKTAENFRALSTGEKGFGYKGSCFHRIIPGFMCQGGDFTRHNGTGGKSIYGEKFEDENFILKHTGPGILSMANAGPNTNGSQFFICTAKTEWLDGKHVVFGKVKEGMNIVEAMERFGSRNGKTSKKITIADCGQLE
Procedure: as §1, §2

IL-2 in Jurkat cells = test: T cell stimulation (IL-2) in Jurkat cells with anti-CD3 and anti-CD28 co-stimulation; format: cell-based; details: 6 hours, Luminex 1-plex
Procedure: as §3

cyclophilin D = cyclophilin D (Homo sapiens, UniProt P30405); test: Cyclophilin binding competitive ELISA, cyclophilin D; details: human recombinant cyclophilin
Sequence of cyclophilin D (P30405 30-207): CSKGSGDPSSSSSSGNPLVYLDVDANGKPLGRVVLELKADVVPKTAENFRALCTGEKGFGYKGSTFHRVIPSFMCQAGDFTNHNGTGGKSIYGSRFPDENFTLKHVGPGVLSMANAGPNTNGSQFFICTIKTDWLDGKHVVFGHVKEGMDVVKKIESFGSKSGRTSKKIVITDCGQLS
Procedure: as §1, §2

Sequence of cyclophilin B (P23284 34-216): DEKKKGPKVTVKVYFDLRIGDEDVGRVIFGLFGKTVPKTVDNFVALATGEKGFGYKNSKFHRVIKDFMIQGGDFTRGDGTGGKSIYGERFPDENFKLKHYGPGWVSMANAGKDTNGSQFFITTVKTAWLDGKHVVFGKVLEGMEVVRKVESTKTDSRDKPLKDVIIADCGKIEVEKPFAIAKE

## C/C=C/C[C@@H](C)[C@@H](O)[C@H]1C(=O)N[C@@H](CC)C(=O)N(C)CC(=O)N(C)[C@@H](CC(C)(C)OCc2ccccc2)C(=O)N[C@@H](C(C)C)C(=O)N(C)[C@@H](CC(C)C)C(=O)N[C@@H](C)C(=O)N[C@H](C)C(=O)N(C)[C@@H](CC(C)C)C(=O)N(C)[C@@H](CC(C)C)C(=O)N(C)[C@@H](C(C)C)C(=O)N1C [Compound A, [4′-Benzyloxy-N-methylleucine]^4cyclosporine A]
Cyclophilin B
  cyclophilin B binding value: 102 ng/mL
[1]
  EC50: < 10000 nM
[2]
  EC50: 410 nM
Jurkat cells
  Cytotoxicity: absence of cytotoxicity
Cyclophilin A
  cyclophilin A binding value: ≤ 98 ng/mL
IL-2 in Jurkat cells
  IL-2 activity EC50: 0.043 µg/mL
Cyclophilin D
  cyclophilin D binding value: 124 ng/mL
